Data as given in PubChem BioAssay (NCI).
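In this assay, cells in 96-well plates receive the compound at five concentrations for 48 hours. Endpoints are linearly interpolated between the surrounding concentrations. The concentration for 50% growth inhibition is given as GI50. The concentration for full growth arrest is given as TGI.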

What follows are compounds tested on SK-MEL-2 melanoma (assay: NCI-60 cell line screen, 48 h).
Compound `O=C1NC2OC(C(O)CO)C(O)C2O1` (centres undefined) has a TGI of over 100 µM.
Compound `C/C(CC(=O)NCCc1ccccc1)=N\NC(=O)C[n+]1ccccc1` has a TGI of over 100 µM.

What follows are compounds tested on SK-MEL-28 melanoma (assay: NCI-60 cell line screen, 48 h).
With `O=c1c2cc(Br)cc(Br)c2nc(CCCl)n1CCO` the TGI was over 100 µM.
Work on `CC(=O)[C@@]1(O)CC[C@H]2[C@@H]3C[C@H](C)C4=CC(=O)C=C[C@]4(C)[C@@]3(F)[C@@H](O)C[C@@]21C` yielded a TGI of over 100 µM.
Work on `O=C1CCCC[C@H]1[C@H]1CCC[C@@H]([C@H]2CCCCC2=O)C1=O` yielded a TGI of over 100 µM.
`O=C1NC2OC(C(O)CO)C(O)C2O1` (centres undefined) was tested, and the TGI was over 100 µM.
`C/C(CC(=O)NCCc1ccccc1)=N\NC(=O)C[n+]1ccccc1` was tested, and the TGI was over 100 µM.

These compounds were tested on SK-MEL-5 melanoma (assay: NCI-60 cell line screen, 48 h).
Compound `O=c1c2cc(Br)cc(Br)c2nc(CCCl)n1CCO` has a TGI of over 100 µM.
`CC(=O)[C@@]1(O)CC[C@H]2[C@@H]3C[C@H](C)C4=CC(=O)C=C[C@]4(C)[C@@]3(F)[C@@H](O)C[C@@]21C` showed a TGI of over 100 µM.
`Nc1ccn(C2CCC(CO)O2)c(=O)n1` (centres undefined) gave a GI50 of over 1000 µM and a TGI of over 1000 µM.
`O=C1CCCC[C@H]1[C@H]1CCC[C@@H]([C@H]2CCCCC2=O)C1=O` gave a TGI of over 100 µM.
`O=C1NC2OC(C(O)CO)C(O)C2O1` (centres undefined) showed a TGI of over 100 µM.
For `C/C(CC(=O)NCCc1ccccc1)=N\NC(=O)C[n+]1ccccc1`, the TGI was over 100 µM.

These compounds were tested on SK-OV-3 ovarian (assay: NCI-60 cell line screen, 48 h).
Work on `O=c1c2cc(Br)cc(Br)c2nc(CCCl)n1CCO` yielded a TGI of over 100 µM.
`CC(=O)[C@@]1(O)CC[C@H]2[C@@H]3C[C@H](C)C4=CC(=O)C=C[C@]4(C)[C@@]3(F)[C@@H](O)C[C@@]21C` gave a TGI of over 100 µM.
In the case of `Nc1ccn(C2CCC(CO)O2)c(=O)n1` (centres undefined), the GI50 was over 1000 µM and the TGI was over 1000 µM.
Compound `O=C1CCCC[C@H]1[C@H]1CCC[C@@H]([C@H]2CCCCC2=O)C1=O` has a TGI of over 100 µM.
For `O=C1NC2OC(C(O)CO)C(O)C2O1` (centres undefined), the TGI was over 100 µM.
`C/C(CC(=O)NCCc1ccccc1)=N\NC(=O)C[n+]1ccccc1` showed a TGI of over 100 µM.

The compounds below were run on SN12C renal (assay: NCI-60 cell line screen, 48 h).
In the case of `O=c1c2cc(Br)cc(Br)c2nc(CCCl)n1CCO`, the TGI was over 100 µM.
Compound `CC(=O)[C@@]1(O)CC[C@H]2[C@@H]3C[C@H](C)C4=CC(=O)C=C[C@]4(C)[C@@]3(F)[C@@H](O)C[C@@]21C` has a TGI of over 100 µM.
`Nc1ccn(C2CCC(CO)O2)c(=O)n1` (centres undefined) gave a GI50 of over 1000 µM and a TGI of over 1000 µM.
`O=C1CCCC[C@H]1[C@H]1CCC[C@@H]([C@H]2CCCCC2=O)C1=O` gave a TGI of over 100 µM.
In the case of `O=C1NC2OC(C(O)CO)C(O)C2O1` (centres undefined), the TGI was over 100 µM.

These compounds were tested on SNB-19 CNS (assay: NCI-60 cell line screen, 48 h).
Work on `CC(=O)[C@@]1(O)CC[C@H]2[C@@H]3C[C@H](C)C4=CC(=O)C=C[C@]4(C)[C@@]3(F)[C@@H](O)C[C@@]21C` yielded a TGI of over 100 µM.
In the case of `Nc1ccn(C2CCC(CO)O2)c(=O)n1` (centres undefined), the GI50 was over 1000 µM and the TGI was over 1000 µM.
With `O=C1CCCC[C@H]1[C@H]1CCC[C@@H]([C@H]2CCCCC2=O)C1=O` the TGI was over 100 µM.
In the case of `O=C1NC2OC(C(O)CO)C(O)C2O1` (centres undefined), the TGI was over 100 µM.

These compounds were tested on SNB-75 CNS (assay: NCI-60 cell line screen, 48 h).
For `O=c1c2cc(Br)cc(Br)c2nc(CCCl)n1CCO`, the TGI was 93.5 µM.
In the case of `CC(=O)[C@@]1(O)CC[C@H]2[C@@H]3C[C@H](C)C4=CC(=O)C=C[C@]4(C)[C@@]3(F)[C@@H](O)C[C@@]21C`, the TGI was over 91.9 µM.
`Nc1ccn(C2CCC(CO)O2)c(=O)n1` (centres undefined) gave a GI50 of over 1000 µM and a TGI of over 1000 µM.
`O=C1CCCC[C@H]1[C@H]1CCC[C@@H]([C@H]2CCCCC2=O)C1=O` was tested, and the TGI was over 100 µM.
With `O=C1NC2OC(C(O)CO)C(O)C2O1` (centres undefined) the TGI was over 100 µM.
In the case of `C/C(CC(=O)NCCc1ccccc1)=N\NC(=O)C[n+]1ccccc1`, the TGI was over 100 µM.

What follows are compounds tested on SNB-78 CNS (assay: NCI-60 cell line screen, 48 h).
Compound `O=c1c2cc(Br)cc(Br)c2nc(CCCl)n1CCO` has a TGI of over 100 µM.
In the case of `CC(=O)[C@@]1(O)CC[C@H]2[C@@H]3C[C@H](C)C4=CC(=O)C=C[C@]4(C)[C@@]3(F)[C@@H](O)C[C@@]21C`, the TGI was over 100 µM.
Work on `Nc1ccn(C2CCC(CO)O2)c(=O)n1` (centres undefined) yielded a TGI of over 81.9 µM.
Compound `C/C(CC(=O)NCCc1ccccc1)=N\NC(=O)C[n+]1ccccc1` has a TGI of over 100 µM.

The compounds below were run on SR leukemia (assay: NCI-60 cell line screen, 48 h).
`CC(=O)[C@@]1(O)CC[C@H]2[C@@H]3C[C@H](C)C4=CC(=O)C=C[C@]4(C)[C@@]3(F)[C@@H](O)C[C@@]21C` showed a TGI of over 100 µM.
`Nc1ccn(C2CCC(CO)O2)c(=O)n1` (centres undefined) showed a TGI of over 1000 µM.
With `O=C1CCCC[C@H]1[C@H]1CCC[C@@H]([C@H]2CCCCC2=O)C1=O` the TGI was over 100 µM.
`O=C1NC2OC(C(O)CO)C(O)C2O1` (centres undefined) showed a TGI of over 100 µM.

These compounds were tested on SW-620 colon (assay: NCI-60 cell line screen, 48 h).
`O=c1c2cc(Br)cc(Br)c2nc(CCCl)n1CCO` showed a TGI of over 100 µM.
`CC(=O)[C@@]1(O)CC[C@H]2[C@@H]3C[C@H](C)C4=CC(=O)C=C[C@]4(C)[C@@]3(F)[C@@H](O)C[C@@]21C` was tested, and the TGI was over 100 µM.
`Nc1ccn(C2CCC(CO)O2)c(=O)n1` (centres undefined) gave a GI50 of over 1000 µM and a TGI of over 1000 µM.
For `O=C1CCCC[C@H]1[C@H]1CCC[C@@H]([C@H]2CCCCC2=O)C1=O`, the TGI was over 100 µM.
With `O=C1NC2OC(C(O)CO)C(O)C2O1` (centres undefined) the TGI was over 100 µM.
`C/C(CC(=O)NCCc1ccccc1)=N\NC(=O)C[n+]1ccccc1` gave a TGI of over 100 µM.

Each compound was assayed on T-47D breast (assay: NCI-60 cell line screen, 48 h).
Compound `CC(=O)[C@@]1(O)CC[C@H]2[C@@H]3C[C@H](C)C4=CC(=O)C=C[C@]4(C)[C@@]3(F)[C@@H](O)C[C@@]21C` has a TGI of over 100 µM.
`Nc1ccn(C2CCC(CO)O2)c(=O)n1` (centres undefined) showed a TGI of over 1000 µM.

The compounds below were run on TK-10 renal (assay: NCI-60 cell line screen, 48 h).
Work on `O=c1c2cc(Br)cc(Br)c2nc(CCCl)n1CCO` yielded a TGI of over 100 µM.
Compound `CC(=O)[C@@]1(O)CC[C@H]2[C@@H]3C[C@H](C)C4=CC(=O)C=C[C@]4(C)[C@@]3(F)[C@@H](O)C[C@@]21C` has a TGI of over 100 µM.
`Nc1ccn(C2CCC(CO)O2)c(=O)n1` (centres undefined) was tested, and the TGI was over 1000 µM.
In the case of `O=C1CCCC[C@H]1[C@H]1CCC[C@@H]([C@H]2CCCCC2=O)C1=O`, the TGI was over 100 µM.
Compound `O=C1NC2OC(C(O)CO)C(O)C2O1` (centres undefined) has a TGI of over 100 µM.
Work on `C/C(CC(=O)NCCc1ccccc1)=N\NC(=O)C[n+]1ccccc1` yielded a TGI of over 100 µM.

These compounds were tested on U251 CNS (assay: NCI-60 cell line screen, 48 h).
With `O=c1c2cc(Br)cc(Br)c2nc(CCCl)n1CCO` the TGI was over 100 µM.
Compound `CC(=O)[C@@]1(O)CC[C@H]2[C@@H]3C[C@H](C)C4=CC(=O)C=C[C@]4(C)[C@@]3(F)[C@@H](O)C[C@@]21C` has a TGI of over 100 µM.
For `Nc1ccn(C2CCC(CO)O2)c(=O)n1` (centres undefined), the GI50 was over 1000 µM and the TGI was over 1000 µM.
Work on `O=C1CCCC[C@H]1[C@H]1CCC[C@@H]([C@H]2CCCCC2=O)C1=O` yielded a TGI of over 100 µM.
With `O=C1NC2OC(C(O)CO)C(O)C2O1` (centres undefined) the TGI was over 100 µM.
For `C/C(CC(=O)NCCc1ccccc1)=N\NC(=O)C[n+]1ccccc1`, the TGI was over 100 µM.

Each compound was assayed on UACC-257 melanoma (assay: NCI-60 cell line screen, 48 h).
With `O=c1c2cc(Br)cc(Br)c2nc(CCCl)n1CCO` the TGI was over 100 µM.
`CC(=O)[C@@]1(O)CC[C@H]2[C@@H]3C[C@H](C)C4=CC(=O)C=C[C@]4(C)[C@@]3(F)[C@@H](O)C[C@@]21C` was tested, and the TGI was over 100 µM.
With `Nc1ccn(C2CCC(CO)O2)c(=O)n1` (centres undefined) the GI50 was over 1000 µM and the TGI was over 1000 µM.
`O=C1CCCC[C@H]1[C@H]1CCC[C@@H]([C@H]2CCCCC2=O)C1=O` showed a TGI of over 100 µM.
`O=C1NC2OC(C(O)CO)C(O)C2O1` (centres undefined) was tested, and the TGI was over 100 µM.
For `C/C(CC(=O)NCCc1ccccc1)=N\NC(=O)C[n+]1ccccc1`, the TGI was over 100 µM.

The compounds below were run on UACC-62 melanoma (assay: NCI-60 cell line screen, 48 h).
`O=c1c2cc(Br)cc(Br)c2nc(CCCl)n1CCO` was tested, and the TGI was over 100 µM.
For `CC(=O)[C@@]1(O)CC[C@H]2[C@@H]3C[C@H](C)C4=CC(=O)C=C[C@]4(C)[C@@]3(F)[C@@H](O)C[C@@]21C`, the TGI was over 100 µM.
`Nc1ccn(C2CCC(CO)O2)c(=O)n1` (centres undefined) gave a GI50 of over 1000 µM and a TGI of over 1000 µM.
With `O=C1CCCC[C@H]1[C@H]1CCC[C@@H]([C@H]2CCCCC2=O)C1=O` the TGI was over 100 µM.
With `O=C1NC2OC(C(O)CO)C(O)C2O1` (centres undefined) the TGI was over 100 µM.
Work on `C/C(CC(=O)NCCc1ccccc1)=N\NC(=O)C[n+]1ccccc1` yielded a TGI of over 100 µM.

The compounds below were run on UO-31 renal (assay: NCI-60 cell line screen, 48 h).
`O=c1c2cc(Br)cc(Br)c2nc(CCCl)n1CCO` showed a TGI of over 100 µM.
`CC(=O)[C@@]1(O)CC[C@H]2[C@@H]3C[C@H](C)C4=CC(=O)C=C[C@]4(C)[C@@]3(F)[C@@H](O)C[C@@]21C` showed a TGI of over 100 µM.
Compound `Nc1ccn(C2CCC(CO)O2)c(=O)n1` (centres undefined) has a TGI of over 1000 µM.
With `O=C1CCCC[C@H]1[C@H]1CCC[C@@H]([C@H]2CCCCC2=O)C1=O` the TGI was over 100 µM.
Work on `O=C1NC2OC(C(O)CO)C(O)C2O1` (centres undefined) yielded a TGI of over 100 µM.
`C/C(CC(=O)NCCc1ccccc1)=N\NC(=O)C[n+]1ccccc1` was tested, and the TGI was over 100 µM.

The compounds below were run on XF 498 CNS (assay: NCI-60 cell line screen, 48 h).
`O=c1c2cc(Br)cc(Br)c2nc(CCCl)n1CCO` gave a TGI of over 100 µM.
In the case of `CC(=O)[C@@]1(O)CC[C@H]2[C@@H]3C[C@H](C)C4=CC(=O)C=C[C@]4(C)[C@@]3(F)[C@@H](O)C[C@@]21C`, the TGI was over 100 µM.
`O=C1CCCC[C@H]1[C@H]1CCC[C@@H]([C@H]2CCCCC2=O)C1=O` showed a TGI of over 100 µM.
`O=C1NC2OC(C(O)CO)C(O)C2O1` (centres undefined) was tested, and the TGI was over 100 µM.
`C/C(CC(=O)NCCc1ccccc1)=N\NC(=O)C[n+]1ccccc1` showed a TGI of over 100 µM.
